Experimental data as given in patent publication US20090247599A1, “METHODS OF TREATING CELL PROLIFERATIVE DISORDERS USING A COMPRESSED TEMOZOLOMIDE DOSING SCHEDULE” (Schering Corporation, priority 2005, published 2009).

What was measured:
[1] = system: LOX human melanoma xenograft tumors; assay: LOX xenograft tumor growth in SCID mice; format: in vivo; details: i.p., 72 mg/kg total dose
Description: (§1) In brief, female athymic nude mice or female SCID mice (4-6 week old) from Charles River Laboratories were maintained in a VAF-barrier facility. Animal procedures were performed in accordance with the rules set forth in the N.I.H. guide for the care and use of laboratory animals.
(§2) DAOY human medulloblastoma cells (5×10^6), U373 human glioma cells (5×10^6), LOX human melanoma cells (5×10^5), and A375 human melanoma cells (5×10^6) were inoculated subcutaneously in the right flank of the animal (LOX in SCID mice; DAOY, U373, and A375 in nude mice). To facilitate in vivo growth, Matrigel was mixed with DAOY and A375 cells (50%) before inoculation. When tumor volumes were approximately 100 mm^3, animals were randomized and grouped (n=10 LOX, DAOY, and A375; n=9 U373). Tumor volumes and body weight were measured twice weekly using Labcat™ computer application (Innovative Programming Associates, N.J.). Tumor volumes were calculated by the formula (W×L×H)×π×⅙. TMZ was administered by intraperitoneal injections with 20% HPβCD (containing 1% DMSO) as vehicle.
Mice bearing xenograft tumors of LOX human melanoma cells, a low MGMT level cell line, were treated with TMZ using two different schedules. The same total dose was administered evenly divided over the course of either: (i) 4 or (ii) 12 days. […]

[2] = system: U373 human glioma xenograft tumors; assay: U373 xenograft tumor growth in nude mice; format: in vivo; details: i.p.
Description: as §1, §2
Mice bearing xenograft tumors of U373 human glioma cells, a high MGMT level cell line, were treated with TMZ for 5 consecutive days (day 1 through day 5) over a cycle that is at least a 28-day cycle. […]

`Cn1nnc2c(C(N)=O)ncn2c1=O` [TMZ, 3,4-dihydro-3-methyl-4-oxoimidazo[5,1-d]-as-tetrazine-8-carboxamide] was tested, and the TGI ([1]; 4-day treatment schedule (Day 1-4)) was 88%, the TGI ([1]; 12-day schedule (Day 1-12)) was 50% and the TGI ([2]; 35 mg/kg for 5 consecutive days (175 mg/kg total)) was 100%. The TGI ([2]; 70 mg/kg for 5 consecutive days (350 mg/kg total)) was 113%.
